Experimental findings from US6831075B2, “Heterocyclic substituted pyrazolones” (Cephalon, Inc., priority 1999, dated 2004) are described below.

In one experiment the target is T1, recombinant human baculovirus-expressed VEGFR1 cytoplasmic domain (Homo sapiens, UniProt P17948).
T1 construct: recombinant human baculovirus-expressed VEGFR1 cytoplasmic domain; host or cells: baculovirus expression system
T1 sequence (P17948 781-1338 limits assumed): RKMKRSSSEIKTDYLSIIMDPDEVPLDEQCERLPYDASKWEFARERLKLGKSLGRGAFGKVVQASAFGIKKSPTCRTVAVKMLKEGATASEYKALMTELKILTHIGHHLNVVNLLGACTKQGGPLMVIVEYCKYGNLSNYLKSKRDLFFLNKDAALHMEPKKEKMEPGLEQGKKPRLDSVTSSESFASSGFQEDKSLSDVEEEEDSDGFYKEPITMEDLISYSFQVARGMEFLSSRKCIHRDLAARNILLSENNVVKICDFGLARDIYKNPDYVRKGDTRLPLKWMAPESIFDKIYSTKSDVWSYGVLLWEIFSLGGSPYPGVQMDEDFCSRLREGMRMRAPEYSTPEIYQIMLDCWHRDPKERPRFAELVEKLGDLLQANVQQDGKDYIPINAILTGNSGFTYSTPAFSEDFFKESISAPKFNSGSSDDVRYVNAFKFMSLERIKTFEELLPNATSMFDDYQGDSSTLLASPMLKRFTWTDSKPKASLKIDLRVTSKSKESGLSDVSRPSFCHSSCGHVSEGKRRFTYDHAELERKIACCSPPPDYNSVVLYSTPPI
The experiment is described as follows: VEGFR1 kinase inhibition assay (ELISA-based, time-resolved fluorescence). Format: biochemical. The conditions noted are these: 1 uM compound; 30 μM ATP. As for the experimental part:
Inhibition of Vascular Endothelial Growth Factor Receptor-1 Kinase Activity
The VEGFR1 kinase activity assay utilizes an ELISA-based format in a 96-well FluoroNUNC Maxisorp plate with a time-resolved fluorescence readout. The plate was coated with 100 μl/well of substrate solution (recombinant human PLC-γ/GST) at a concentration of 40 μg/ml in Tris buffered saline (TBS). The VEGFR1 activity was assayed in 100-μl assay micture containing 50 mM HEPES (pH 7.4), 30 μM ATP, 10 mM MnCl2, 0.1% BSA, 2% DMSO, and 300 ng/ml prephosphorylated recombinant human baculovirus-expressed VEGFR1 cytoplasmic domain. Compounds were screened for inhibition of the VEGFR1 kinase activity at a concentration of 1 μM. The kinase reaction was allowed to proceed at 37° C. for 15 minutes. The detection antibody, europium-labeled anti-phosphotyrosine antibody (Wallac #CR04-100), was added at 1:5000 dilution in block buffer (3% BSA in TBST). After a 1-hour incubation at 37° C., 100 μl of enhancement solution (Wallac #1244-105) was added and the plate was gently agitated. After 5 min, the fluorescence of the resulting solution was measured using the BMG Fluostar (Model # 403).
In general terms: An ELISA detects its analyte on a solid surface through an enzyme-linked reagent.
As to `Cc1cc(C)c(C=C2C(=O)NN=C2c2cccnc2)[nH]1` [Compound 10], the “VEGFR-1 kinase % inhibition @ 1 uM” value is 41%.

As for `COC(=O)c1ccc2c(C=C3C(=O)NN=C3c3ccco3)c[nH]c2c1` [Compound 50], the “VEGFR-1 kinase % inhibition @ 1 uM” value was 31%.

Take `Cc1cc(C)c(C=C2C(=O)NN=C2c2cc(C)oc2C)[nH]1` [Compound 36]: the “VEGFR-1 kinase % inhibition @ 1 uM” value is 14%.

For `Cn1cc(C=C2C(=O)NN=C2c2ccco2)c2ccccc21` [Compound 45], the “VEGFR-1 kinase % inhibition @ 1 uM” value amounted to 46%.

For the compound `Cc1cc(C)c(C=C2C(=O)NN=C2c2ccncc2)[nH]1` [Compound 3], the “VEGFR-1 kinase % inhibition @ 1 uM” value amounted to 22%.

On to `Cc1cc(C)c(C=C2C(=O)NN=C2c2ccn(C)c2)[nH]1` [Compound 23], for which the “VEGFR-1 kinase % inhibition @ 1 uM” value turned out to be 2%.

In the case of `Cc1cc(C)c(C=C2C(=O)NN=C2c2ccoc2)[nH]1` [Compound 1], the “VEGFR-1 kinase % inhibition @ 1 uM” value is recorded as 35%.

For `CN(C)c1ccc(C=C2C(=O)NN=C2c2ccco2)cc1` [Compound 52], the “VEGFR-1 kinase % inhibition @ 1 uM” value is 0%.

Consider `N#CCCn1cc(C=C2C(=O)NN=C2c2nccs2)c2ccccc21` [Compound 64], for which the “VEGFR-1 kinase % inhibition @ 1 uM” value turned out to be 26%.

Regarding `CCOC(=O)CCc1c(C(=O)OCC)[nH]c(C=C2C(=O)NN=C2c2ccoc2)c1CC(=O)OCC` [Compound 7], the “VEGFR-1 kinase % inhibition @ 1 uM” value is listed as 13%.

The target in another experiment is T2, recombinant human baculoviral VEGFR2 cyctoplasmic domain (Homo sapiens, UniProt P35968).
T2 construct: recombinant human baculoviral VEGFR2 cyctoplasmic domain; host or cells: baculovirus expression system
T2 sequence (P35968 786-1356 limits assumed): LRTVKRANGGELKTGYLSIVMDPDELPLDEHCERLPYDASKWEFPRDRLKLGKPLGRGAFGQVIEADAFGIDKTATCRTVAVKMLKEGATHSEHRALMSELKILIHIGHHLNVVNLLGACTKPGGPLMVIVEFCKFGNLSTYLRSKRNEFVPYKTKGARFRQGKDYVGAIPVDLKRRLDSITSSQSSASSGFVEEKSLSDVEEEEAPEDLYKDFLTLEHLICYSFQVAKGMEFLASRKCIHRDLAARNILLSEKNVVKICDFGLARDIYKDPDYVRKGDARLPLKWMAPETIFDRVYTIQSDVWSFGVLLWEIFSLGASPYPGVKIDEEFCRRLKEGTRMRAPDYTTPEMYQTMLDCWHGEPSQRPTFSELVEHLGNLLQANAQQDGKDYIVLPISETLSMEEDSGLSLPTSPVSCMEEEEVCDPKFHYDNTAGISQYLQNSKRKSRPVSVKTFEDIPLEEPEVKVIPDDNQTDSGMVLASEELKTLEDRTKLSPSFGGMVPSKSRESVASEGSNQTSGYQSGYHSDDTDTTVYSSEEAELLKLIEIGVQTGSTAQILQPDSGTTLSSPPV
The experiment is described as follows: VEGFR2 kinase inhibition assay (ELISA-based, time-resolved fluorescence). Format: biochemical. The conditions noted are these: 1 uM compound; 30 μM ATP. As to the method:
Inhibition of Vascular Endothelial Growth Factor Receptor-2 Kinase Activity
Assay were performed as described for trkA kinase below. The 96-well microtiter plate (FluoroNUNC Maxisorp) was coated with 40 μg/ml recombinant human phospholipase C-γ1/glutathione S-transferase fusion protein. Inhibition studies were performed in 100 μl assay mixtures containing 50 mM HEPES, pH 7.4, 30 μM ATP, 10 mM MnCl2, 0.1% BSA, 2% DMSO, and 1 μM of test compound. The reaction was initiated by adding prephosphorylated recombinant human baculoviral VEGFR2 cyctoplasmic domain. The reaction was allowed to proceed for 15 minutes at 37° C. The detection antibody, eurpium-labeled anti-phosphotyrosine antibody (Wallac #CR04-100), was added at 1:5000 dilution in block buffer (3% BSA in TBST).
Take `Cc1cc(C)c(C=C2C(=O)NN=C2c2cccnc2)[nH]1` [Compound 10]: the “VEGFR-2 kinase % inhibition @ 1 uM” value is given as 64%.

With `COC(=O)c1ccc2c(C=C3C(=O)NN=C3c3ccco3)c[nH]c2c1` [Compound 50], the “VEGFR-2 kinase % inhibition @ 1 uM” value turned out to be 44%.

For the compound `Cc1cc(C)c(C=C2C(=O)NN=C2c2cc(C)oc2C)[nH]1` [Compound 36], the “VEGFR-2 kinase % inhibition @ 1 uM” value was found to be 27%.

As for `Cn1cc(C=C2C(=O)NN=C2c2ccco2)c2ccccc21` [Compound 45], the “VEGFR-2 kinase % inhibition @ 1 uM” value was determined as 72%.

Regarding `Cc1cc(C)c(C=C2C(=O)NN=C2c2ccncc2)[nH]1` [Compound 3], the “VEGFR-2 kinase % inhibition @ 1 uM” value is recorded as 39%.

On to `Cc1cc(C)c(C=C2C(=O)NN=C2c2ccn(C)c2)[nH]1` [Compound 23], for which the “VEGFR-2 kinase % inhibition @ 1 uM” value came to 7%.

In the case of `CN(C)c1ccc(C=C2C(=O)NN=C2c2ccco2)cc1` [Compound 52], the “VEGFR-2 kinase % inhibition @ 1 uM” value is given as 19%.

`N#CCCn1cc(C=C2C(=O)NN=C2c2nccs2)c2ccccc21` [Compound 64]: the “VEGFR-2 kinase % inhibition @ 1 uM” value is reported as 43%.

Turning to `CCOC(=O)CCc1c(C(=O)OCC)[nH]c(C=C2C(=O)NN=C2c2ccoc2)c1CC(=O)OCC` [Compound 7], the “VEGFR-2 kinase % inhibition @ 1 uM” value is reported as −3%.

In a further experiment the target is T3, baculovirus-expressed human trkA cytoplasmic domain (Homo sapiens, UniProt P04629).
T3 construct: baculovirus-expressed human trkA cytoplasmic domain; host or cells: baculovirus expression system
T3 sequence (P04629 440-796 limits assumed): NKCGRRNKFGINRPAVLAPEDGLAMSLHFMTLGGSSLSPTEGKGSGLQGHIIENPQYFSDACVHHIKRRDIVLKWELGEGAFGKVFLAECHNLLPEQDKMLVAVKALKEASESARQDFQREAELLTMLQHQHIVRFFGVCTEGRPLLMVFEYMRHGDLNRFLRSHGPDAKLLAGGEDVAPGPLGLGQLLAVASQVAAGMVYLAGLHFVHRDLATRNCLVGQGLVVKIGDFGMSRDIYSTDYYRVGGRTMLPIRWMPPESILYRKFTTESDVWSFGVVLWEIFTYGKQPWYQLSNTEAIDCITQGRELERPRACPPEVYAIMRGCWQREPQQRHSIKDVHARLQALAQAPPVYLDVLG
The experiment is described as follows: trkA tyrosine kinase inhibition assay (ELISA-based). In kind it is biochemical. The conditions noted are these: 1 uM compound; 40 μM ATP. As for the experimental part: Inhibition of trkA Tyrosine Kinase Activity
Selected heterocyclic substituted pyrazolones were tested for their ability to inhibit the kinase activity of baculovirus-expressed human trkA cytoplasmic domain using an ELISA-based assay as previously described (Angeles et al., Anal. Biochem. 236: 49-55, 1996). Briefly, a 96-well microtiter plate was coated with substrate solution (recombinant human phospholipase C-γl/glutathione S-transferase fusion protein (Rotin et al., EMBO J., 11: 559-567, 1992). Inhibition studies were performed in 100 μl assay mixtures containing 50 mM Hepes, pH 7.4, 40 μM ATP, 10 mM MnCl2, 0.1% BSA, 2% DMSO, and various concentrations of inhibitor. The reaction was initiated by addition of trkA kinase and allowed to proceed for 15 minutes at 37° C. An antibody to phosphotyrosine (UBI) was then added, followed by a secondary enzyme-conjugated antibody, alkaline phosphatase-labelled goat anti-mouse IgG (Bio-Rad). The activity of the bound enzyme was measured via an amplified detection system (Gibco-BRL). Inhibition data were analyzed using the sigmoidal dose-response (variable slope) equation in GraphPad Prism.
With `Cc1cc(C)c(C=C2C(=O)NN=C2c2cccnc2)[nH]1` [Compound 10], the “trkA % inhibition @ 1 uM” value stood at 26%.

Consider `COC(=O)c1ccc2c(C=C3C(=O)NN=C3c3ccco3)c[nH]c2c1` [Compound 50], for which the “trkA % inhibition @ 1 uM” value is 28%.

As for `Cc1cc(C)c(C=C2C(=O)NN=C2c2cc(C)oc2C)[nH]1` [Compound 36], the “trkA % inhibition @ 1 uM” value came to 40%.

For the compound `Cn1cc(C=C2C(=O)NN=C2c2ccco2)c2ccccc21` [Compound 45], the “trkA % inhibition @ 1 uM” value is given as 39%.

In the case of `Cc1cc(C)c(C=C2C(=O)NN=C2c2ccncc2)[nH]1` [Compound 3], the “trkA % inhibition @ 1 uM” value was found to be 60%.

In the case of `Cc1cc(C)c(C=C2C(=O)NN=C2c2ccn(C)c2)[nH]1` [Compound 23], the “trkA % inhibition @ 1 uM” value is 26%.

For the compound `Cc1cc(C)c(C=C2C(=O)NN=C2c2ccoc2)[nH]1` [Compound 1], the “trkA % inhibition @ 1 uM” value was found to be 24%.

As for `CN(C)c1ccc(C=C2C(=O)NN=C2c2ccco2)cc1` [Compound 52], the “trkA % inhibition @ 1 uM” value came out at 10%.

With `N#CCCn1cc(C=C2C(=O)NN=C2c2nccs2)c2ccccc21` [Compound 64], the “trkA % inhibition @ 1 uM” value worked out at 10%.

For `CCOC(=O)CCc1c(C(=O)OCC)[nH]c(C=C2C(=O)NN=C2c2ccoc2)c1CC(=O)OCC` [Compound 7], the “trkA % inhibition @ 1 uM” value is given as 33%.

The next experiment deals with T4, baculoviral GST-MLK3KD (Homo sapiens, UniProt Q16584).
T4 construct: 2 μg/ml of baculoviral GST-MLK3KD; GST (N); host or cells: baculovirus expression system
T4 sequence (Q16584 117-379 limits assumed): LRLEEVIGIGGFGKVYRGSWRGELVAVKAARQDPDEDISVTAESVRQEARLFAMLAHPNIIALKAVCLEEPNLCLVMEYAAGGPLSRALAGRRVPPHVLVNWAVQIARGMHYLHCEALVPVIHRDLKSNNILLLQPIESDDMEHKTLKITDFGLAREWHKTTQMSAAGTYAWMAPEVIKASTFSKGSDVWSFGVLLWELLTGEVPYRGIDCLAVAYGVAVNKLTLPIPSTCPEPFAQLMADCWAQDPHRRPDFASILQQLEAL
The experiment can be described thus: Mixed Lineage Kinase-3 inhibition assay (Millipore Multiscreen plate, 32P). In kind it is biochemical. Particulars: 1 uM compound; 100 μM ATP. As for the experimental part: Inhibition of Mixed Lineage Kinase-3 Activity
Assays were performed using the Millipore Multiscreen plate format as described for MLK1. Briefly, each 50-μl assay mixture contained 20 mM Hepes, pH 7, 1 mM EGTA, 10 mM MgCl2, 1 mM DTT, 25 mM β-glycerophosphate, 100 μM ATP, 0.25 μCi [γ-^32P]ATP, 0.1% BSA, 500 μg/ml myelin basic protein (UBI #13-104), 2% DMSO, various concentrations of test compound, and 2 μg/ml of baculoviral GST-MLK3KD. Samples were incubated for 15 min at 37° C. The reaction was stopped by adding ice cold 50% TCA and the proteins were allowed to precipitate for 30 min at 4° C. The plates were then washed with ice cold 25% TCA. Supermix scintillation cocktail was added, and the plates were allowed to equilibrate for 1-2 hours prior to counting.
As to `Cc1cc(C)c(C=C2C(=O)NN=C2c2cccnc2)[nH]1` [Compound 10], the “MLK-3 Kinase % inhibition @ 1 uM” value was found to be 44%.

As for `COC(=O)c1ccc2c(C=C3C(=O)NN=C3c3ccco3)c[nH]c2c1` [Compound 50], the “MLK-3 Kinase % inhibition @ 1 uM” value is recorded as 15%.

As for `Cc1cc(C)c(C=C2C(=O)NN=C2c2cc(C)oc2C)[nH]1` [Compound 36], the “MLK-3 Kinase % inhibition @ 1 uM” value was 25%.

Take `Cn1cc(C=C2C(=O)NN=C2c2ccco2)c2ccccc21` [Compound 45]: the “MLK-3 Kinase % inhibition @ 1 uM” value came out at 56%.

`Cc1cc(C)c(C=C2C(=O)NN=C2c2ccncc2)[nH]1` [Compound 3]: the “MLK-3 Kinase % inhibition @ 1 uM” value stood at 12%.

Regarding `Cc1cc(C)c(C=C2C(=O)NN=C2c2ccn(C)c2)[nH]1` [Compound 23], the “MLK-3 Kinase % inhibition @ 1 uM” value stood at 69%.

For the compound `Cc1cc(C)c(C=C2C(=O)NN=C2c2ccoc2)[nH]1` [Compound 1], the “MLK-3 Kinase % inhibition @ 1 uM” value was found to be 28%.

`CN(C)c1ccc(C=C2C(=O)NN=C2c2ccco2)cc1` [Compound 52]: the “MLK-3 Kinase % inhibition @ 1 uM” value amounted to 19%.

`N#CCCn1cc(C=C2C(=O)NN=C2c2nccs2)c2ccccc21` [Compound 64]: the “MLK-3 Kinase % inhibition @ 1 uM” value came to 15%.

As for `CCOC(=O)CCc1c(C(=O)OCC)[nH]c(C=C2C(=O)NN=C2c2ccoc2)c1CC(=O)OCC` [Compound 7], the “MLK-3 Kinase % inhibition @ 1 uM” value is 7%.
